Active and inactive are the calls of the source. No rule for the calls is given here.
Key:
[1] = system: cell-based imaging, cytoskeleton assembly phenotype, high content; assay: cellular cytoskeleton assembly phenotype modulators – imaging, high-content imaging, retest and dose response, confirmation (AID 1249);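 also: compound exposure lasted 24 h before fixation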
[2] = as above; conditions: cell-based imaging, cytoskeleton assembly phenotype, high content; cell count; at 10 µM; stronger effect = lower value

SMILES	IC50 [1]	cell count [2]
Cc1ccc(Nc2nc(-c3c(C)nc4ccccn34)cs2)cc1	1.37 µM	31.8%
CCCOC(=O)c1[nH]c2c(c1C)C(=O)CC(c1cccs1)C2 (stereo not given)	> 10 µM (inactive)	40.1%
O=Cc1cc2ccccc2nc1SCc1ccc(Cl)c(Cl)c1	> 10 µM (inactive)	94.3%
CC(/C=N/NC(=O)c1cc(-c2ccc(Cl)cc2)nc2ccccc12)=C\c1ccco1	> 10 µM (inactive)	115%
CC(/C=N/NC(=O)c1cc(-c2ccncc2)nc2ccccc12)=C\c1ccco1	4.55 µM	35.1%
COCCN1C(=O)c2oc3c(C)cc(C)cc3c(=O)c2C1c1cccc(O)c1 (stereo not given)	> 10 µM (inactive)	86%
O=C(COc1ccccc1-c1ccccc1)N/N=C/c1cccc2ccccc12	> 10 µM (inactive)	85%
COC(=O)C1CN(C#N)N(c2ccc(Cl)cc2)C12c1ccccc1-c1ccccc12 (stereo not given)	> 10 µM (inactive)	85.3%
CCOC(=O)c1[nH]c(C)c(C(=O)c2cc(F)ccc2F)c1C	> 10 µM (inactive)	48.7%
CCn1c2ccccc2c2cc(NC(=O)c3cc(OC)c(OC)c(OC)c3)ccc21	1.73 µM	32.4%
CCN(CC)c1ccc(-c2nn3c(-c4ccccc4OC)nnc3s2)cc1	1.7 µM	25.6%
COc1ccc(C2=Nn3c(nnc3-c3ccc(OC)cc3)SC2)cc1	> 10 µM (inactive)	91.1%
Cc1ccc(NC2=C/C(=N\S(=O)(=O)c3cccs3)c3ccccc3C2=O)c(C)c1	> 10 µM (inactive)	79.8%
O=C(c1ccco1)N1CCN(C(=O)N2c3ccccc3Sc3ccccc32)CC1	> 10 µM (inactive)	42%
CCN(CC)c1ccc2c(c1)OC(N)=C(C#N)C2c1cccnc1 (stereo not given)	0.625 µM	33.7%
CC(C)Oc1ccccc1C1CC(=O)Nc2cc3c(cc21)OCO3 (stereo not given)	> 10 µM (inactive)	113%
CC(C)Oc1ccccc1C1CC(=O)Nc2cc3c(cc21)OCCO3 (stereo not given)	> 10 µM (inactive)	88.5%
CN(C)c1ccc(C(=O)c2ccc(N(C)C)c3ccccc23)cc1	0.599 µM	28.2%
COc1ccc(NC(=O)/C(Cl)=C(/Cl)S(=O)Cc2ccccc2)cn1 (stereo not given)	> 10 µM (inactive)	48.1%
COc1ccc(NC(=O)/C(Cl)=C(/Cl)S(=O)Cc2ccc(C)cc2)cn1 (stereo not given)	> 10 µM (inactive)	63.4%
